Assays:
Type in all cases: functional
Malme-3M = assay: Growth inhibition of human MALME-3M cells assessed as cell growth at 0.01 uM incubated for 48 hrs by sulforhodamine B assay relative to control; details: read-out: Activity
CCRF-CEM = assay: Growth inhibition of human CCRF-CEM cells assessed as cell growth at 0.1 uM incubated for 48 hrs by sulforhodamine B assay relative to control; details: read-out: Activity
HCC 2998 = assay: Growth inhibition of human HCC2998 cells assessed as cell growth at 0.1 uM incubated for 48 hrs by sulforhodamine B assay relative to control; details: HCC 2998, 48 h, read-out: Activity
A498 [1] = assay: Growth inhibition of human A498 cells assessed as cell growth at 0.1 uM incubated for 48 hrs by sulforhodamine B assay relative to control; details: A498, 48 h, read-out: Activity
HCT-116 = assay: Growth inhibition of human HCT116 cells assessed as cell growth at 1 uM incubated for 48 hrs by sulforhodamine B assay relative to control; details: HCT-116, 48 h, read-out: Activity
HCT-15 = assay: Growth inhibition of human HCT15 cells assessed as cell growth at 1 uM incubated for 48 hrs by sulforhodamine B assay relative to control; details: HCT-15, 48 h, read-out: Activity
MDA-MB-435 [2] = assay: Growth inhibition of human MDA-MB-435 cells assessed as cell growth at 1 uM incubated for 48 hrs by sulforhodamine B assay relative to control; details: MDA-MB-435, 48 h, read-out: Activity
IGROV-1 [3] = assay: Growth inhibition of human IGROV1 cells assessed as cell growth at 1 uM incubated for 48 hrs by sulforhodamine B assay relative to control; details: IGROV-1, 48 h, read-out: Activity
HL-60(TB) = assay: Growth inhibition of human HL-60(TB) cells assessed as cell growth at 10 uM incubated for 48 hrs by sulforhodamine B assay relative to control; details: HL-60, 48 h, read-out: Activity
MOLT-4 = assay: Growth inhibition of human MOLT4 cells assessed as cell growth at 10 uM incubated for 48 hrs by sulforhodamine B assay relative to control; details: MOLT-4, 48 h, read-out: Activity
RPMI-8226 [4] = assay: Growth inhibition of human RPMI8226 cells assessed as cell growth at 10 uM incubated for 48 hrs by sulforhodamine B assay relative to control; details: RPMI-8226, 48 h, read-out: Activity
OVCAR-5 [5] = assay: Growth inhibition of human OVCAR5 cells assessed as cell growth at 10 uM incubated for 48 hrs by sulforhodamine B assay relative to control; details: OVCAR-5, 48 h, read-out: Activity
LOX IMVI = assay: Growth inhibition of human LOXIMVI cells assessed as cell growth at 100 uM incubated for 48 hrs by sulforhodamine B assay relative to control; details: read-out: Activity
OVCAR-3 = assay: Growth inhibition of human OVCAR3 cells assessed as cell growth at 100 uM incubated for 48 hrs by sulforhodamine B assay relative to control; details: OVCAR-3, 48 h, read-out: Activity
SN12C = assay: Growth inhibition of human SN12C cells assessed as cell growth at 100 uM incubated for 48 hrs by sulforhodamine B assay relative to control; details: read-out: Activity
BT-549 = assay: Growth inhibition of human BT549 cells assessed as cell growth at 100 uM incubated for 48 hrs by sulforhodamine B assay relative to control; details: BT-549, 48 h, read-out: Activity
K562 = assay: Growth inhibition of human K562 cells assessed as cell growth at 0.003 uM incubated for 48 hrs by sulforhodamine B assay relative to control; details: K562, 48 h, read-out: Activity
A549 [6] = assay: Growth inhibition of human A549/ATCC cells assessed as cell growth at 0.003 uM incubated for 48 hrs by sulforhodamine B assay relative to control; details: A549, 48 h, read-out: Activity
U-251 = assay: Growth inhibition of human U251 cells assessed as cell growth at 0.003 uM incubated for 48 hrs by sulforhodamine B assay relative to control; details: U-251, 48 h, read-out: Activity
MDA-MB-435 [7] = assay: Growth inhibition of human MDA-MB-435 cells assessed as cell growth at 0.003 uM incubated for 48 hrs by sulforhodamine B assay relative to control; details: MDA-MB-435, 48 h, read-out: Activity
UACC-257 = assay: Growth inhibition of human UACC257 cells assessed as cell growth at 0.003 uM incubated for 48 hrs by sulforhodamine B assay relative to control; details: UACC-257, 48 h, read-out: Activity
RXF 393 = assay: Growth inhibition of human RXF393 cells assessed as cell growth at 0.003 uM incubated for 48 hrs by sulforhodamine B assay relative to control; details: RXF 393, 48 h, read-out: Activity
MCF7 = assay: Growth inhibition of human MCF7 cells assessed as cell growth at 0.003 uM incubated for 48 hrs by sulforhodamine B assay relative to control; details: MCF7, 48 h, read-out: Activity
RPMI-8226 [8] = assay: Growth inhibition of human RPMI8226 cells assessed as cell growth at 0.03 uM incubated for 48 hrs by sulforhodamine B assay relative to control; details: RPMI-8226, 48 h, read-out: Activity
OVCAR-5 [9] = assay: Growth inhibition of human OVCAR5 cells assessed as cell growth at 0.03 uM incubated for 48 hrs by sulforhodamine B assay relative to control; details: OVCAR-5, 48 h, read-out: Activity
SK-OV-3 = assay: Growth inhibition of human SKOV3 cells assessed as cell growth at 0.03 uM incubated for 48 hrs by sulforhodamine B assay relative to control; details: SK-OV-3, 48 h, read-out: Activity
A549 [10] = assay: Growth inhibition of human A549/ATCC cells assessed as cell growth at 0.3 uM incubated for 48 hrs by sulforhodamine B assay relative to control; details: A549, 48 h, read-out: Activity
NCI-H23 = assay: Growth inhibition of human NCI-H23 cells assessed as cell growth at 0.3 uM incubated for 48 hrs by sulforhodamine B assay relative to control; details: NCI-H23, 48 h, read-out: Activity
T47D = assay: Growth inhibition of human T47D cells assessed as cell growth at 0.3 uM incubated for 48 hrs by sulforhodamine B assay relative to control; details: read-out: Activity
NCI-H322M = assay: Growth inhibition of human NCI-H322M cells assessed as cell growth at 30 uM incubated for 48 hrs by sulforhodamine B assay relative to control; details: read-out: Activity
SW-620 = assay: Growth inhibition of human SW620 cells assessed as cell growth at 30 uM incubated for 48 hrs by sulforhodamine B assay relative to control; details: SW-620, 48 h, read-out: Activity
IGROV-1 [11] = assay: Growth inhibition of human IGROV1 cells assessed as cell growth at 30 uM incubated for 48 hrs by sulforhodamine B assay relative to control; details: IGROV-1, 48 h, read-out: Activity
A498 [12] = assay: Growth inhibition of human A498 cells assessed as cell growth at 30 uM incubated for 48 hrs by sulforhodamine B assay relative to control; details: A498, 48 h, read-out: Activity
MDA-MB-231 = assay: Growth inhibition of human MDA-MB-231 cells assessed as cell growth at 30 uM incubated for 48 hrs by sulforhodamine B assay relative to control; details: MDA-MB-231, 48 h, read-out: Activity

Structure (SMILES)	growth at 0.01 µM (Malme-3M) [%]	growth at 0.1 µM (CCRF-CEM) [%]	growth at 0.1 µM (HCC 2998) [%]	growth at 0.1 µM (A498 [1]) [%]	growth at 1 µM (HCT-116) [%]	growth at 1 µM (HCT-15) [%]	growth at 1 µM (MDA-MB-435 [2]) [%]	growth at 1 µM (IGROV-1 [3]) [%]	growth at 10 µM (HL-60(TB)) [%]	growth at 10 µM (MOLT-4) [%]	growth at 10 µM (RPMI-8226 [4]) [%]	growth at 10 µM (OVCAR-5 [5]) [%]	growth at 100 µM (LOX IMVI) [%]	growth at 100 µM (OVCAR-3) [%]	growth at 100 µM (SN12C) [%]	growth at 100 µM (BT-549) [%]	growth at 0.003 µM (K562) [%]	growth at 0.003 µM (A549 [6]) [%]	growth at 0.003 µM (U-251) [%]	growth at 0.003 µM (MDA-MB-435 [7]) [%]	further results
COc1cc2cc(Oc3ccc(NC(=O)Nc4ccc(Cl)c(Cl)c4)cc3)c(C)nc2cc1OC	102	104	101	86	76	88	85	110	-22	7	-22	50	-100	-98	-41	-72	–	–	–	–	–
COc1cc2cc(Oc3ccc(NC(=O)Nc4ccc(Cl)c(C(F)(F)F)c4)cc3)c(C)nc2cc1OC	–	–	–	–	–	–	–	–	–	–	–	–	–	–	–	–	95	94	97	98	growth at 0.003 µM (UACC-257): 94%; growth at 0.003 µM (RXF 393): 106%; growth at 0.003 µM (MCF7): 98%; growth at 0.03 µM (RPMI-8226 [8]): 98%; growth at 0.03 µM (OVCAR-5 [9]): 102%; growth at 0.03 µM (SK-OV-3): 100%; growth at 0.3 µM (A549 [10]): 89%; growth at 0.3 µM (NCI-H23): 92%; growth at 0.3 µM (T47D): 92%; growth at 30 µM (NCI-H322M): -86%; growth at 30 µM (SW-620): -87%; growth at 30 µM (IGROV-1 [11]): -42%; growth at 30 µM (A498 [12]): -98%; growth at 30 µM (MDA-MB-231): -74%
COc1cc2cc(Oc3ccc(NC(=O)Nc4cc(C(F)(F)F)cc(C(F)(F)F)c4)cc3)c(C)nc2cc1OC	87	97	107	93	33	41	84	31	-41	-36	-8	-58	-90	-89	-74	-61	–	–	–	–	–
Cc1nc2cc(O)c(O)cc2cc1Oc1ccc(NC(=O)Nc2ccc(Cl)c(Cl)c2)cc1	–	–	–	–	–	–	–	–	–	–	–	–	–	–	–	–	122	100	95	94	growth at 0.003 µM (UACC-257): 85%; growth at 0.003 µM (RXF 393): 100%; growth at 0.003 µM (MCF7): 94%; growth at 0.03 µM (RPMI-8226 [8]): 98%; growth at 0.03 µM (OVCAR-5 [9]): 100%; growth at 0.03 µM (SK-OV-3): 102%; growth at 0.3 µM (A549 [10]): 96%; growth at 0.3 µM (NCI-H23): 94%; growth at 0.3 µM (T47D): 101%; growth at 30 µM (NCI-H322M): 19%; growth at 30 µM (SW-620): 16%; growth at 30 µM (IGROV-1 [11]): 17%; growth at 30 µM (A498 [12]): 75%; growth at 30 µM (MDA-MB-231): 6%

Reference: ChEMBL document CHEMBL3994622, “Design and synthesis of new RAF kinase-inhibiting antiproliferative quinoline derivatives. Part 2: Diarylurea derivatives” (Eur J Med Chem, 2017)
